Data published in patent publication US4421688A, “Macbecin derivatives” (Takeda Chemical Industries, Ltd., priority 1981, dated 1983).

Assay: Acute toxicity, mouse, intraperitoneal
Assay type: in vivo

## COC1c2cc(O)cc(c2O)NC(=O)/C(C)=C/C=C\C(C)C(OC(N)=O)/C(C)=C/C(C)C(OC)C(O)CC1C (centres unmarked) [E-5-R]
intraperitoneal, versus Macbecin I and II
  acute toxicity as compared with Macbecin I and II (in words): lower toxicity as compared with Macbecin I and II
ip
  acute toxicity (in words): low toxicity
